According to US9156845B2, “4-(substituted amino)-7H-pyrrolo[2,3-d] pyrimidines as LRRK2 inhibitors” (Pfizer Inc., priority 2012, dated 2015):

Legend:
[1] = biological target: GST-tagged truncated LRRK2 (Homo sapiens (Human), UniProt Q5S007); assay: LRRK2 Lantha Screen kinase assay; format: biochemical; conditions: geometric mean of 2-5 determinations unless otherwise indicated (a: >=6 determinations; b: single determination); read-out: LRRK2 WT IC50
Procedure: LRRK2 kinase activity was measured using Lantha Screen technology from Invitrogen. GST-tagged truncated LRRK2 from Invitrogen (Cat # PV4874) was incubated with a fluorescein-labeled peptide substrate based upon ezrin/radixin/moesin (ERM), also known as LRRKtide (Invitrogen cat #PR8976A), in the presence of a dose response of compound. Upon completion, the assay was stopped and detected with a terbium labeled anti-phospho-ERM antibody (Invitrogen, cat #PR8975A). […] Aliquots (3.5 μL) of the 100% DMSO dose response were mixed with 46.5 μL water then 1 μL of this mixture was added to the 3 μL substrate mix in the 384-well plate. The kinase reaction was started with 3 μL of a working solution of LRRK2 enzyme at a concentration of 4 μg/mL. […] The reaction was allowed to progress at room temperature for two hours and then stopped with the addition of 7 μL of detection buffer (20 mM Tris pH 7.6, 0.01% NP-40, 0.02% NaN3, 6 mM EDTA with 2 nM terbium labeled anti-phospho-ERM).

[2] = biological target: mutant G2019S LRRK2 (Homo sapiens (Human), UniProt Q5S007, G2019S); assay: LRRK2 Lantha Screen kinase assay, mutant enzyme; format: biochemical; conditions: geometric mean of 2-5 determinations unless otherwise indicated (a: >=6 determinations; b: single determination)
Chain of mutant G2019S LRRK2 (Q5S007 970-2527 G2019S): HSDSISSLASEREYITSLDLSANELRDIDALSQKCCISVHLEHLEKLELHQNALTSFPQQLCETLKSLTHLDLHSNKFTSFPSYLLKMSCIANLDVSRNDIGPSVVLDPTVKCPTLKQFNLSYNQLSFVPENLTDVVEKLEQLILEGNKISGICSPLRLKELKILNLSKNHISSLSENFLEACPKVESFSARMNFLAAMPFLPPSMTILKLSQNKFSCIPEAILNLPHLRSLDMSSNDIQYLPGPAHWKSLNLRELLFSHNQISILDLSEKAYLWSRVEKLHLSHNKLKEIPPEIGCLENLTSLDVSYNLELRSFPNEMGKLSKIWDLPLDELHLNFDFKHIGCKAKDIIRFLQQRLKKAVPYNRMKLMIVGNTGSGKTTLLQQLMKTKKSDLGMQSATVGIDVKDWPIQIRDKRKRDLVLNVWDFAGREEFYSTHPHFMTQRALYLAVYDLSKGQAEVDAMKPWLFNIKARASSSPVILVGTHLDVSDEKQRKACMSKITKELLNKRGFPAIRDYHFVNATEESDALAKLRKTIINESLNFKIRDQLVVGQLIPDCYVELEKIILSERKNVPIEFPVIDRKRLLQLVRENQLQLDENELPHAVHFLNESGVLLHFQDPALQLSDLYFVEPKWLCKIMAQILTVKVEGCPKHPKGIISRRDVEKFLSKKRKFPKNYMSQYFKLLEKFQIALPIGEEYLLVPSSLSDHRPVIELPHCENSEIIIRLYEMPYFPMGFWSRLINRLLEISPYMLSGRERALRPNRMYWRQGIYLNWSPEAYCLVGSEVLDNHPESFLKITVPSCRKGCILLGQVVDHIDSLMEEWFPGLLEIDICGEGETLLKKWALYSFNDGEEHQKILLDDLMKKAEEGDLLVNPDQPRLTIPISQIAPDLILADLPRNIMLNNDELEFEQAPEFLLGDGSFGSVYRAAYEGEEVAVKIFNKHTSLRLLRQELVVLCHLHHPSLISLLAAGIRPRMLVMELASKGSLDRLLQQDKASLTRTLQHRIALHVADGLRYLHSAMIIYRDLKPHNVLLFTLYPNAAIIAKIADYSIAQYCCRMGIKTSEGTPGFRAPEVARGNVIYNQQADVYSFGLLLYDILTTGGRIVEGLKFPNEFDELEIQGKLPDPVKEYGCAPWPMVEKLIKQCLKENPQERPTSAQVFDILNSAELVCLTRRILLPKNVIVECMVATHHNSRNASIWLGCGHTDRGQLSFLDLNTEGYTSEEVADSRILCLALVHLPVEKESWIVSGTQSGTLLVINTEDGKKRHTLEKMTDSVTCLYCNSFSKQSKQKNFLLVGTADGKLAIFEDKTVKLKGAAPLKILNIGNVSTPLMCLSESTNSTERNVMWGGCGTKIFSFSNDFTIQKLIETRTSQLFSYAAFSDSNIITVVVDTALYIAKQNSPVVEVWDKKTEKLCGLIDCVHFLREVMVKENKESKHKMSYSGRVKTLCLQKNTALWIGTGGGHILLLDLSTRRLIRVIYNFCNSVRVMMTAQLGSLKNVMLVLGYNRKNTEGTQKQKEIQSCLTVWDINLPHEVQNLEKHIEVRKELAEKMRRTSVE

Chain of GST-tagged truncated LRRK2 (Q5S007 970-2527): as the sequence (Q5S007 970-2527 G2019S) above, with S1050G counted along it

Row | SMILES | IC50 [1] | IC50 [2]
1 | N#Cc1cccc(-c2c[nH]c3ncnc(N4CCCC(F)C4)c23)c1 (stereo not shown) [Example 61, 3-[4-(3-fluoropiperidin-1-yl)-7H-pyrrolo[2,3-d]pyrimidin-5-yl]benzonitrile] | 12 nM | 80 nM
2 | Cc1cncc(-c2c[nH]c3ncnc(N4CCC[C@H](C)C4)c23)c1 [Example 52, 4-[(3S)-3-methylpiperidin-1-yl]-5-(5-methylpyridin-3-yl)-7H-pyrrolo[2,3-d]pyrimidine] | 15 nM | 19 nM
3 | C[C@H]1CN(c2ncnc3[nH]cc(-c4cccc(C#N)c4F)c23)CCO1 [Example 180, 2-fluoro-3-{4-[(2S)-2-methylmorpholin-4-yl]-7H-pyrrolo[2,3-d]pyrimidin-5-yl}benzonitrile] | 10 nM | 62 nM
4 | Cc1noc(C2CN(c3ncnc4[nH]cc(-c5cccc(C#N)c5F)c34)CCO2)n1 (single isomer, unassigned) [Example 213] | 7.71 nM | 95.7 nM
5 | Brc1cncc(-c2c[nH]c3ncnc(N4CCOCC4)c23)c1 [Example 105, 5-(5-bromopyridin-3-yl)-4-(morpholin-4-yl)-7H-pyrrolo[2,3-d]pyrimidine] | 6 nM | 14 nM
6 | N#Cc1cccc(-c2c[nH]c3ncnc(N4CCC(c5ncc[nH]5)CC4)c23)c1 [Example 26, 3-{4-[4-(1H-imidazol-2-yl)piperidin-1-yl]-7H-pyrrolo[2,3-d]pyrimidin-5-yl}benzonitrile] | 42 nM | 230 nM
7 | CC1CCN(c2ncnc3[nH]cc(-c4cccc(C#N)c4)c23)C1 (single isomer, unassigned) [Example 77] | 39 nM | 158 nM
8 | C[C@H]1CCCN(c2ncnc3[nH]cc(-c4cccc(C(N)=O)c4)c23)C1 [Example 60, 3-{4-[(3S)-3-methylpiperidin-1-yl]-7H-pyrrolo[2,3-d]pyrimidin-5-yl}benzamide] | 86 nM | 58 nM
9 | C1=C(c2c[nH]c3ncnc(N4CCOCC4)c23)CCCO1 [Example 200, 5-(3,4-Dihydro-2H-pyran-5-yl)-4-(morpholin-4-yl)-7H-pyrrolo[2,3-d]pyrimidine] | 76.7 nM | 167 nM
10 | COc1ccc(C#N)cc1-c1c[nH]c2ncnc(N3CCC[C@H](C)C3)c12 [Example 66, 4-methoxy-3-{4-[(3S)-3-methylpiperidin-1-yl]-7H-pyrrolo[2,3-d]pyrimidin-5-yl}benzonitrile] | 21 nM | 51 nM
11 | C[C@H]1CCCN(c2ncnc3[nH]cc(-c4cnc5[nH]ccc5c4)c23)C1 [Example 53, 4-[(3S)-3-methylpiperidin-1-yl]-5-(7H-pyrrolo[2,3-b]pyridin-5-yl)-7H-pyrrolo[2,3-d]pyrimidine] | 74 nM | 69 nM
12 | COc1ccc(F)cc1-c1c[nH]c2ncnc(N3CCC3)c12 [Example 168, 4-(azetidin-1-yl)-5-(5-fluoro-2-methoxyphenyl)-7H-pyrrolo[2,3-d]pyrimidine] | 85 nM | 75 nM
13 | N#Cc1cccc(-c2c[nH]c3ncnc(N4CCC(F)CC4)c23)c1 [Example 33, 3-[4-(4-fluoropiperidin-1-yl)-7H-pyrrolo[2,3-d]pyrimidin-5-yl]benzonitrile] | 17 nM | 96 nM
14 | CN(C)CC1CN(c2ncnc3[nH]cc(-c4cccc(C#N)c4)c23)CCO1 (stereo not shown) [Example 143, 3-(4-{2-[(dimethylamino)methyl]morpholin-4-yl}-7H-pyrrolo[2,3-d]pyrimidin-5-yl)benzonitrile] | 45 nM | 110 nM
15 | CC(=O)NC1CCN(c2ncnc3[nH]cc(-c4cccc(C#N)c4)c23)CC1 [Example 44, N-{1-[5-(3-cyanophenyl)-7H-pyrrolo[2,3-d]pyrimidin-4-yl]piperidin-4-yl}acetamide] | 50 nM | 190 nM

Continued, values first:

Row | IC50 [1] | IC50 [2] | SMILES
16 | 43 nM | 90 nM | Cc1ccnc(-c2c[nH]c3ncnc(N4CCOCC4)c23)c1 [Example 188, 5-(4-methylpyridin-2-yl)-4-(morpholin-4-yl)-7H-pyrrolo[2,3-d]pyrimidine]
17 | 35 nM | 119 nM | N#Cc1cccc(-c2c[nH]c3ncnc(N4CCCC5(CNC(=O)C5)C4)c23)c1 (stereo not shown) [Example 40, 3-[4-(3-oxo-2,7-diazaspiro[4.5]dec-7-yl)-7H-pyrrolo[2,3-d]pyrimidin-5-yl]benzonitrile]
18 | 129 nM | 475 nM | c1cc(-c2ncon2)cc(-c2c[nH]c3ncnc(N4CCOCC4)c23)c1 [Example 201, 4-(Morpholin-4-yl)-5-[3-(1,2,4-oxadiazol-3-yl)phenyl]-7H-pyrrolo[2,3-d]pyrimidine]
19 | 57 nM | 86 nM | OC1CCCN(c2ncnc3[nH]cc(-c4cccc(F)c4)c23)C1 (stereo not shown) [Example 156, 1-[5-(3-fluorophenyl)-7H-pyrrolo[2,3-d]pyrimidin-4-yl]piperidin-3-ol]
20 | 12 nM | 19 nM | OCc1cccc(-c2c[nH]c3ncnc(N4CCOCC4)c23)c1 [Example 100, {3-[4-(morpholin-4-yl)-7H-pyrrolo[2,3-d]pyrimidin-5-yl]phenyl}methanol]
21 | 37 nM | 93 nM | COc1cc(C#N)cc(-c2c[nH]c3ncnc(N(C)C)c23)c1 [Example 147, 3-[4-(dimethylamino)-7H-pyrrolo[2,3-d]pyrimidin-5-yl]-5-methoxybenzonitrile]
22 | 47 nM | 51 nM | COc1ccc(F)c(Cl)c1-c1c[nH]c2ncnc(N3CCOCC3)c12 [Example 193, 5-(2-chloro-3-fluoro-6-methoxyphenyl)-4-(morpholin-4-yl)-7H-pyrrolo[2,3-d]pyrimidin]
23 | 43 nM | 29 nM | COc1ccccc1-c1c[nH]c2ncnc(N(C)C)c12 [Example 173, 5-(2-methoxyphenyl)-N,N-dimethyl-7H-pyrrolo[2,3-d]pyrimidin-4-amine]
24 | 91 nM | 223 nM | Cc1ccc(F)cc1-c1c[nH]c2ncnc(N3CCOCC3)c12 [Example 96, 5-(5-fluoro-2-methylphenyl)-4-(morpholin-4-yl)-7H-pyrrolo[2,3-d]pyrimidine]
25 | 9 nM | 42 nM | N#Cc1cccc(-c2c[nH]c3ncnc(N4CCCC(O)C4)c23)c1F (stereo not shown) [Example 178, 2-fluoro-3-[4-(3-hydroxypiperidin-1-yl)-7H-pyrrolo[2,3-d]pyrimidin-5-yl]benzonitrile]
26 | 56 nM | 31 nM | N#CC1CCCN(c2ncnc3[nH]cc(-c4cccc(CO)c4)c23)C1 (stereo not shown) [Example 20, 1-{5-[3-(hydroxymethyl)phenyl]-7H-pyrrolo[2,3-d]pyrimidin-4-yl}piperidine-3-carbonitrile]
27 | 6.26 nM | 12.3 nM | c1cnn2c(-c3c[nH]c4ncnc(N5CCOCC5)c34)cnc2c1 [Example 212, 5-(imidazo[1,2-b]pyridazin-3-yl)-4-(morpholin-4-yl)-7H-pyrrolo[2,3-d]pyrimidine]
28 | 35.6 nM | 119 nM | c1cnc2c(-c3c[nH]c4ncnc(N5CCOCC5)c34)cnn2c1 [Example 216, 4-(morpholin-4-yl)-5-(pyrazolo[1,5-a]pyrimidin-3-yl)-7H-pyrrolo[2,3-d]pyrimidine]
29 | 15.8 nM | 60.5 nM | c1nc(N2CCOCC2)c2c(-c3cnc4sccn34)c[nH]c2n1 [Example 205, 5-(imidazo[2,1-b][1,3]thiazol-5-yl)-4-(morpholin-4-yl)-7H-pyrrolo[2,3-d]pyrimidine]
